Measured values published in US6310043A (priority 1999, dated 2001).

Assays:
Format in all cases: binding, E. coli
SLT-2 (VT-2) = SLT-2 (VT-2) (Escherichia phage 933W, UniProt P09386)
SLT-1 (VT-1) = SLT-1 (VT-1) (Bacteriophage H30, UniProt P69178)
SLT-1 (Verotoxin I) = SLT-1 (Verotoxin I) (Bacteriophage H30, UniProt P69178); assay: biochemical; settings: for IC50: read-out: IC50
[1] = solid phase assays, protocol A or B

Chain of SLT-1 (VT-1) (P69178 whole entry, looked up): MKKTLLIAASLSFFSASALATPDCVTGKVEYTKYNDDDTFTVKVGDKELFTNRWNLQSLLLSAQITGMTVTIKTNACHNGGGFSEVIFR
Chain of SLT-1 (Verotoxin I) (P69178 whole entry, looked up): as above
Chain of SLT-2 (VT-2) (P09386 whole entry, looked up): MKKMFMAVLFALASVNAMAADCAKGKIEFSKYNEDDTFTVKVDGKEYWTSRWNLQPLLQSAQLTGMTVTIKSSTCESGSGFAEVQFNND

SMILES	IC50 (SLT-2 (VT-2))	IC50 (SLT-1 (VT-1))	activity relative to the Pk trisaccharide alone (SLT-1 (Verotoxin I); ELISA, VT-I)	IC50 (SLT-1 (Verotoxin I))	activity relative to the bridged trisaccharide dimer (SLT-1 (Verotoxin I); similar ELISA, FIG. 5)	relative inhibition of SLT-1 binding to P^k ligand (in words) (SLT-1 (Verotoxin I); [1])	fold less active when compared to 22 (SLT-1 (Verotoxin I); solid phase assays, protocol A or B, SLT-1)
CO[C@@H]1O[C@H](CO)[C@@H](O[C@@H]2O[C@H](CO)[C@H](O[C@H]3O[C@H](CO)[C@H](O)[C@H](O)[C@H]3O)[C@H](O)[C@H]2OCCOC(=O)NCC(CNC(=O)OCCO[C@H]2[C@H](O[C@H]3[C@H](O)[C@@H](O)[C@H](OC)O[C@@H]3CO)O[C@H](CO)[C@H](O[C@H]3O[C@H](CO)[C@H](O)[C@H](O)[C@H]3O)[C@@H]2O)OC(=O)NCCCCCCCCNc2c(NCCNC(=O)CSCCCOC[C@H]3O[C@@H](OCCCSCC(=O)NCCNc4c(NCCCCCCCCNC(=O)OC(CNC(=O)OCCO[C@H]5[C@H](O[C@H]6[C@H](O)[C@@H](O)[C@H](OC)O[C@@H]6CO)O[C@H](CO)[C@H](O[C@H]6O[C@H](CO)[C@H](O)[C@H](O)[C@H]6O)[C@@H]5O)CNC(=O)OCCO[C@H]5[C@H](O[C@H]6[C@H](O)[C@@H](O)[C@H](OC)O[C@@H]6CO)O[C@H](CO)[C@H](O[C@H]6O[C@H](CO)[C@H](O)[C@H](O)[C@H]6O)[C@@H]5O)c(=O)c4=O)[C@H](OCCCSCC(=O)NCCNc4c(NCCCCCCCCNC(=O)OC(CNC(=O)OCCO[C@H]5[C@H](O[C@H]6[C@H](O)[C@@H](O)[C@H](OC)O[C@@H]6CO)O[C@H](CO)[C@H](O[C@H]6O[C@H](CO)[C@H](O)[C@H](O)[C@H]6O)[C@@H]5O)CNC(=O)OCCO[C@H]5[C@H](O[C@H]6[C@H](O)[C@@H](O)[C@H](OC)O[C@@H]6CO)O[C@H](CO)[C@H](O[C@H]6O[C@H](CO)[C@H](O)[C@H](O)[C@H]6O)[C@@H]5O)c(=O)c4=O)[C@@H](OCCCSCC(=O)NCCNc4c(NCCCCCCCCNC(=O)OC(CNC(=O)OCCO[C@H]5[C@H](O[C@H]6[C@H](O)[C@@H](O)[C@H](OC)O[C@@H]6CO)O[C@H](CO)[C@H](O[C@H]6O[C@H](CO)[C@H](O)[C@H](O)[C@H]6O)[C@@H]5O)CNC(=O)OCCO[C@H]5[C@H](O[C@H]6[C@H](O)[C@@H](O)[C@H](OC)O[C@@H]6CO)O[C@H](CO)[C@H](O[C@H]6O[C@H](CO)[C@H](O)[C@H](O)[C@H]6O)[C@@H]5O)c(=O)c4=O)[C@@H]3OCCCSCC(=O)NCCNc3c(NCCCCCCCCNC(=O)OC(CNC(=O)OCCO[C@H]4[C@H](O[C@H]5[C@H](O)[C@@H](O)[C@H](OC)O[C@@H]5CO)O[C@H](CO)[C@H](O[C@H]5O[C@H](CO)[C@H](O)[C@H](O)[C@H]5O)[C@@H]4O)CNC(=O)OCCO[C@H]4[C@H](O[C@H]5[C@H](O)[C@@H](O)[C@H](OC)O[C@@H]5CO)O[C@H](CO)[C@H](O[C@H]5O[C@H](CO)[C@H](O)[C@H](O)[C@H]5O)[C@@H]4O)c(=O)c3=O)c(=O)c2=O)[C@H](O)[C@H]1O [Compound 22]	6 nM	0.4 nM	about a million times more active than the trisaccharide alone	0.23 nM	about 10,000 times	by far the most active inhibitor of SLT-1 binding to P^k ligand	
CO[C@@H]1O[C@H](CO)[C@@H](O[C@@H]2O[C@H](CO)[C@H](O[C@H]3O[C@H](CO)[C@H](O)[C@H](O)[C@H]3O)[C@H](O)[C@H]2OCCOC(=O)NCC(CNC(=O)OCCO[C@H]2[C@H](O[C@H]3[C@H](O)[C@@H](O)[C@H](OC)O[C@@H]3CO)O[C@H](CO)[C@H](O[C@H]3O[C@H](CO)[C@H](O)[C@H](O)[C@H]3O)[C@@H]2O)OC(=O)NCCCCCCCCNc2c(NCCNC(=O)CSCCCOC[C@H]3O[C@@H](OC)[C@H](OCCCSCC(=O)NCCNc4c(NCCCCCCCCNC(=O)OC(CNC(=O)OCCO[C@H]5[C@H](O[C@H]6[C@H](O)[C@@H](O)[C@H](OC)O[C@@H]6CO)O[C@H](CO)[C@H](O[C@H]6O[C@H](CO)[C@H](O)[C@H](O)[C@H]6O)[C@@H]5O)CNC(=O)OCCO[C@H]5[C@H](O[C@H]6[C@H](O)[C@@H](O)[C@H](OC)O[C@@H]6CO)O[C@H](CO)[C@H](O[C@H]6O[C@H](CO)[C@H](O)[C@H](O)[C@H]6O)[C@@H]5O)c(=O)c4=O)[C@@H](OCCCSCC(=O)NCCNc4c(NCCCCCCCCNC(=O)OC(CNC(=O)OCCO[C@H]5[C@H](O[C@H]6[C@H](O)[C@@H](O)[C@H](OC)O[C@@H]6CO)O[C@H](CO)[C@H](O[C@H]6O[C@H](CO)[C@H](O)[C@H](O)[C@H]6O)[C@@H]5O)CNC(=O)OCCO[C@H]5[C@H](O[C@H]6[C@H](O)[C@@H](O)[C@H](OC)O[C@@H]6CO)O[C@H](CO)[C@H](O[C@H]6O[C@H](CO)[C@H](O)[C@H](O)[C@H]6O)[C@@H]5O)c(=O)c4=O)[C@@H]3OCCCSCC(=O)NCCNc3c(NCCCCCCCCNC(=O)OC(CNC(=O)OCCO[C@H]4[C@H](O[C@H]5[C@H](O)[C@@H](O)[C@H](OC)O[C@@H]5CO)O[C@H](CO)[C@H](O[C@H]5O[C@H](CO)[C@H](O)[C@H](O)[C@H]5O)[C@@H]4O)CNC(=O)OCCO[C@H]4[C@H](O[C@H]5[C@H](O)[C@@H](O)[C@H](OC)O[C@@H]5CO)O[C@H](CO)[C@H](O[C@H]5O[C@H](CO)[C@H](O)[C@H](O)[C@H]5O)[C@@H]4O)c(=O)c3=O)c(=O)c2=O)[C@H](O)[C@H]1O [Compound 23]	9 nM	3.3 nM		1.6 nM			
CO[C@@H]1O[C@H](CO)[C@@H](O[C@@H]2O[C@H](CO)[C@H](O[C@H]3O[C@H](CO)[C@H](O)[C@H](O)[C@H]3O)[C@H](O)[C@H]2OCCOC(=O)NCCCCCCCCNc2c(NCCNC(=O)CSCCCOC[C@H]3O[C@@H](OCCCSCC(=O)NCCNc4c(NCCCCCCCCNC(=O)OCCO[C@H]5[C@H](O[C@H]6[C@H](O)[C@@H](O)[C@H](OC)O[C@@H]6CO)O[C@H](CO)[C@H](O[C@H]6O[C@H](CO)[C@H](O)[C@H](O)[C@H]6O)[C@@H]5O)c(=O)c4=O)[C@H](OCCCSCC(=O)NCCNc4c(NCCCCCCCCNC(=O)OCCO[C@H]5[C@H](O[C@H]6[C@H](O)[C@@H](O)[C@H](OC)O[C@@H]6CO)O[C@H](CO)[C@H](O[C@H]6O[C@H](CO)[C@H](O)[C@H](O)[C@H]6O)[C@@H]5O)c(=O)c4=O)[C@@H](OCCCSCC(=O)NCCNc4c(NCCCCCCCCNC(=O)OCCO[C@H]5[C@H](O[C@H]6[C@H](O)[C@@H](O)[C@H](OC)O[C@@H]6CO)O[C@H](CO)[C@H](O[C@H]6O[C@H](CO)[C@H](O)[C@H](O)[C@H]6O)[C@@H]5O)c(=O)c4=O)[C@@H]3OCCCSCC(=O)NCCNc3c(NCCCCCCCCNC(=O)OCCO[C@H]4[C@H](O[C@H]5[C@H](O)[C@@H](O)[C@H](OC)O[C@@H]5CO)O[C@H](CO)[C@H](O[C@H]5O[C@H](CO)[C@H](O)[C@H](O)[C@H]5O)[C@@H]4O)c(=O)c3=O)c(=O)c2=O)[C@H](O)[C@H]1O [Compound 25]		1230 nM		24 nM			500-1000 fold
CO[C@@H]1O[C@H](CO)[C@@H](O[C@@H]2O[C@H](CO)[C@H](O[C@H]3O[C@H](CO)[C@H](O)[C@H](O)[C@H]3O)[C@H](O)[C@H]2OCCOC(=O)NCCCCCCCCNc2c(NCCNC(=O)CSCCCOC[C@H]3O[C@@H](OC)[C@H](OCCCSCC(=O)NCCNc4c(NCCCCCCCCNC(=O)OCCO[C@H]5[C@H](O[C@H]6[C@H](O)[C@@H](O)[C@H](OC)O[C@@H]6CO)O[C@H](CO)[C@H](O[C@H]6O[C@H](CO)[C@H](O)[C@H](O)[C@H]6O)[C@@H]5O)c(=O)c4=O)[C@@H](OCCCSCC(=O)NCCNc4c(NCCCCCCCCNC(=O)OCCO[C@H]5[C@H](O[C@H]6[C@H](O)[C@@H](O)[C@H](OC)O[C@@H]6CO)O[C@H](CO)[C@H](O[C@H]6O[C@H](CO)[C@H](O)[C@H](O)[C@H]6O)[C@@H]5O)c(=O)c4=O)[C@@H]3OCCCSCC(=O)NCCNc3c(NCCCCCCCCNC(=O)OCCO[C@H]4[C@H](O[C@H]5[C@H](O)[C@@H](O)[C@H](OC)O[C@@H]5CO)O[C@H](CO)[C@H](O[C@H]5O[C@H](CO)[C@H](O)[C@H](O)[C@H]5O)[C@@H]4O)c(=O)c3=O)c(=O)c2=O)[C@H](O)[C@H]1O [Compound 26]		3400 nM		350 nM		the activity drops by several orders of magnitude	
CO[C@@H]1O[C@H](CO)[C@@H](O[C@@H]2O[C@H](CO)[C@H](O[C@H]3O[C@H](CO)[C@H](O)[C@H](O)[C@H]3O)[C@H](O)[C@H]2OCCOC(=O)NCCCCCCCCNc2c(NCCNC(=O)CSCCCO[C@@H]3[C@@H](OCCCSCC(=O)NCCNc4c(NCCCCCCCCNC(=O)OCCO[C@H]5[C@H](O[C@H]6[C@H](O)[C@@H](O)[C@H](OC)O[C@@H]6CO)O[C@H](CO)[C@H](O[C@H]6O[C@H](CO)[C@H](O)[C@H](O)[C@H]6O)[C@@H]5O)c(=O)c4=O)[C@H](OC)O[C@H](CO)[C@H]3OCCCSCC(=O)NCCNc3c(NCCCCCCCCNC(=O)OCCO[C@H]4[C@H](O[C@H]5[C@H](O)[C@@H](O)[C@H](OC)O[C@@H]5CO)O[C@H](CO)[C@H](O[C@H]5O[C@H](CO)[C@H](O)[C@H](O)[C@H]5O)[C@@H]4O)c(=O)c3=O)c(=O)c2=O)[C@H](O)[C@H]1O [Compound 27]		13600 nM		3500 nM		the activity drops by several orders of magnitude	
